In patent US20020137929A1, “1 - (3-heterocyclylphenyl) isothiourea, -isourea, -guanidine and -amidine herbicidal agents” (Intellectual Property Department, BASF Aktiengesellschaft, priority 1998, published 2002):

Assays:
[1] = tested on: IPOHE (Morningglory, Ivyleaf); assay: Postemergence herbicidal evaluation; format: in vivo, Ipomoea hederacea
Procedure, shortened: (§1)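 Young plants, roughly two weeks from seeding, receive the active ingredient as a sprayed dispersion (acetone/water 50/50, 0.5% TWEEN 20) at 40 psi. Doses span about 0.0156 to 0.500 kg/ha. A visual score from 0 to 9 compares treated with control plants four to five weeks on.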

[2] = tested on: ECHCG (Barnyardgrass); assay: Postemergence herbicidal evaluation; format: in vivo, Echinochloa crus-galli
Procedure, shortened: as §1

[3] = tested on: ECHCG (Barnyardgrass); assay: Preemergence herbicidal evaluation; format: in vivo, Echinochloa crus-galli; settings: rated 4-5 weeks after treatment
Procedure, shortened: (§2)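 In this greenhouse assay, monocot and dicot seeds are planted in soil and treated prior to emergence with an aqueous acetone spray (about 0.0156-0.500 kg/ha). Plants are assessed visually against control on a 0-9 scale after 4-5 weeks.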

[4] = tested on: TRZAWR (Wheat, Winter, cv Riband); assay: Postemergence herbicidal evaluation; format: in vivo, Triticum aestivum
Procedure, shortened: as §1

[5] = tested on: ABUTH (Velvetleaf); assay: Postemergence herbicidal evaluation; format: in vivo, Abutilon theophrasti
Procedure, shortened: as §1

[6] = tested on: GLXMAW (Soybean, Williams); assay: Postemergence herbicidal evaluation; format: in vivo, Glycine max, (L.) Merr. cv Williams
Procedure, shortened: as §1

[7] = tested on: SETVI (Foxtail, Green); assay: Postemergence herbicidal evaluation; format: in vivo, Setaria viridis
Procedure, shortened: as §1

[8] = tested on: GALAP (Galium); assay: Preemergence herbicidal evaluation; format: in vivo, Galium aparine; settings: rated 4-5 weeks after treatment
Procedure, shortened: as §2

[9] = tested on: CHEAL (Lambsquarters, Common); assay: Preemergence herbicidal evaluation; format: in vivo, Chenopodium album; settings: rated 4-5 weeks after treatment
Procedure, shortened: as §2

[10] = tested on: ECHORC (Watergrass (Calif.)); assay: Postemergence weed control under flooded paddy conditions; format: in vivo, Echinochloa oryzoides; settings: postemergence weeds, 3-4 weeks after treatment
Procedure, shortened: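 Weeds 3 to 5 cm tall and rice seedlings at the 1.5 to 2.5 leaf stage were flooded, with water held 1.5 to 3 cm above the soil. Compounds in 50/50 v/v aqueous/acetone went into the flood water at about 0.0313 to 0.500 kg/ha. Visual 0-9 ratings versus control were made 3 to 4 weeks later.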

[11] = tested on: ZEAMX (Corn, Field); assay: Preemergence herbicidal evaluation; format: in vivo, Zea mays; settings: rated 4-5 weeks after treatment
Procedure, shortened: as §2

[12] = tested on: CASOB (Sicklepod); assay: Preemergence herbicidal evaluation; format: in vivo, Cassia obtusifolia; settings: rated 4-5 weeks after treatment
Procedure, shortened: as §2

[13] = tested on: IPOHE (Morningglory, Ivyleaf); assay: Preemergence herbicidal evaluation; format: in vivo, Ipomoea hederacea; settings: rated 4-5 weeks after treatment
Procedure, shortened: as §2

[14] = tested on: AMBEL (Ragweed, Common); assay: Postemergence herbicidal evaluation; format: in vivo, Ambrosia artemisifolia
Procedure, shortened: as §1

CCOC(=O)CN1C(=O)C(CC(=O)OCc2ccccc2)OC1=Nc1cc(-n2c(=O)cc(C(F)(F)F)n(C)c2=O)c(F)cc1Cl (stereo not shown) [Compound 40, 2-{{2-Chloro-5-[3,6-dihydro-3-methyl-2,6-dioxo-4-(trifluoromethyl)-1(2H)-pyrimidinyl]-4-fluorophenyl}imino}-4-oxo-3,5-oxazolidinediacetic acid, 5-benzyl ethyl ester] was tested, and the “Postemergence herbicidal rating IPOHE” value ([1]; Rate 0.0158 kg/ha) was 9.0, the “Postemergence herbicidal rating IPOHE” value ([1]; Rate 0.0315 kg/ha) was 9.0 and the “Postemergence herbicidal rating IPOHE” value ([1]; Rate 0.0630 kg/ha) was 9.0. The “Postemergence herbicidal rating ECHCG” value ([2]; Rate 0.0158 kg/ha) was 1.0, the “Postemergence herbicidal rating ECHCG” value ([2]; Rate 0.0315 kg/ha) was 7.0 and the “Postemergence herbicidal rating ECHCG” value ([2]; Rate 0.0630 kg/ha) was 9.0. The “Preemergence herbicidal rating ECHCG” value ([3]; rate 0.0313 kg/ha) was 0.0, the “Preemergence herbicidal rating ECHCG” value ([3]; rate 0.0625 kg/ha) was 0.0 and the “Preemergence herbicidal rating ECHCG” value ([3]; rate 0.1250 kg/ha) was 1.0. For the same molecule, the “Preemergence herbicidal rating ECHCG” value ([3]; rate 0.2500 kg/ha) was 1.0, the “Postemergence herbicidal rating TRZAWR” value ([4]; Rate 0.0158 kg/ha) was 4.0 and the “Postemergence herbicidal rating TRZAWR” value ([4]; Rate 0.0315 kg/ha) was 4.0. For the same molecule, the “Postemergence herbicidal rating TRZAWR” value ([4]; Rate 0.0630 kg/ha) was 4.5, the “Postemergence herbicidal rating ABUTH” value ([5]; Rate 0.0158 kg/ha) was 9.0 and the “Postemergence herbicidal rating ABUTH” value ([5]; Rate 0.0315 kg/ha) was 9.0. For the same molecule, the “Postemergence herbicidal rating ABUTH” value ([5]; Rate 0.0630 kg/ha) was 9.0, the “Postemergence herbicidal rating GLXMAW” value ([6]; Rate 0.0158 kg/ha) was 7.0 and the “Postemergence herbicidal rating GLXMAW” value ([6]; Rate 0.0315 kg/ha) was 9.0. The “Postemergence herbicidal rating GLXMAW” value ([6]; Rate 0.0630 kg/ha) was 8.0, the “Postemergence herbicidal rating SETVI” value ([7]; Rate 0.0158 kg/ha) was 1.0 and the “Postemergence herbicidal rating SETVI” value ([7]; Rate 0.0315 kg/ha) was 7.0. For the same molecule, the “Postemergence herbicidal rating SETVI” value ([7]; Rate 0.0630 kg/ha) was 9.0, the “Preemergence herbicidal rating GALAP” value ([8]; rate 0.0313 kg/ha) was 0.0 and the “Preemergence herbicidal rating GALAP” value ([8]; rate 0.0625 kg/ha) was 0.0. The “Preemergence herbicidal rating GALAP” value ([8]; rate 0.1250 kg/ha) was 0.0, the “Preemergence herbicidal rating GALAP” value ([8]; rate 0.2500 kg/ha) was 0.0 and the “Preemergence herbicidal rating CHEAL” value ([9]; rate 0.0313 kg/ha) was 9.0. For the same molecule, the “Preemergence herbicidal rating CHEAL” value ([9]; rate 0.0625 kg/ha) was 9.0, the “Preemergence herbicidal rating CHEAL” value ([9]; rate 0.1250 kg/ha) was 9.0 and the “Preemergence herbicidal rating CHEAL” value ([9]; rate 0.2500 kg/ha) was 9.0. For the same molecule, the “Herbicidal rating ECHORC” value ([10]; rate 0.0313 kg/ha) was 5.0, the “Herbicidal rating ECHORC” value ([10]; rate 0.0625 kg/ha) was 5.0 and the “Herbicidal rating ECHORC” value ([10]; rate 0.1250 kg/ha) was 5.0. For the same molecule, the “Herbicidal rating ECHORC” value ([10]; rate 0.2500 kg/ha) was 9.0, the “Preemergence herbicidal rating ZEAMX” value ([11]; rate 0.0313 kg/ha) was 0.0 and the “Preemergence herbicidal rating ZEAMX” value ([11]; rate 0.0625 kg/ha) was 0.0. The “Preemergence herbicidal rating ZEAMX” value ([11]; rate 0.1250 kg/ha) was 0.0, the “Preemergence herbicidal rating ZEAMX” value ([11]; rate 0.2500 kg/ha) was 1.0 and the “Preemergence herbicidal rating CASOB” value ([12]; rate 0.0313 kg/ha) was 0.0. The “Preemergence herbicidal rating CASOB” value ([12]; rate 0.0625 kg/ha) was 0.0, the “Preemergence herbicidal rating CASOB” value ([12]; rate 0.1250 kg/ha) was 0.0 and the “Preemergence herbicidal rating CASOB” value ([12]; rate 0.2500 kg/ha) was 1.0. For the same molecule, the “Preemergence herbicidal rating IPOHE” value ([13]; rate 0.0313 kg/ha) was 0.0, the “Preemergence herbicidal rating IPOHE” value ([13]; rate 0.0625 kg/ha) was 0.0 and the “Preemergence herbicidal rating IPOHE” value ([13]; rate 0.1250 kg/ha) was 9.0. For the same molecule, the “Preemergence herbicidal rating IPOHE” value ([13]; rate 0.2500 kg/ha) was 9.0, the “Postemergence herbicidal rating AMBEL” value ([14]; Rate 0.0158 kg/ha) was 9.0 and the “Postemergence herbicidal rating AMBEL” value ([14]; Rate 0.0315 kg/ha) was 9.0. For the same molecule, the “Postemergence herbicidal rating AMBEL” value ([14]; Rate 0.0630 kg/ha) was 9.0.
